Test results: US11899021B2, “Luciferase-based thermal shift assays” (Promega Corporation, priority 2015, dated 2024)

Assays:
HDAC1-Nluc = target: T1, HDAC1-Nluc (Homo sapiens, UniProt Q13547); experiment: Direct-luciferase-detection thermal shift assay, HDAC1-Nluc (Example 7); format: binding; conditions: HeLa cells then digitonin, 10 uL of 1 mM stock per well
T1 construct: NanoLuc luciferase (Nluc); expressed in transfected cells; host or cells: HeLa
Protocol: (§1) The cells were seeded into 96-well tall-chimney PCR plate (Fisherbrand) at a density of 2×10^4 cells/well in a 90 uL/well volume and treated with 10 uL of 10% DMSO (Sigma) or 10 uL of a 1 mM stock solution of test compound in 10% DMSO. […] The plates were placed into a thermal cycler (MW Research) where the samples were heated individually at different temperatures spanning a gradient of 42-66° C. across the plate for 3 minutes followed by cooling at 22° C. for 3 minutes. 100 uL/well was then transferred to a tissue culture plate (Corning), and luminescence was measured on a BMG Clariostar luminometer equipped with a 450 nm BP filter. Data was normalized by relating RLU signals to the RLU of the lowest temperature for the respective sample.

CDK2-Nluc = target: T2, CDK2-Nluc (Homo sapiens, UniProt P24941); experiment: Direct-luciferase-detection thermal shift assay, compound selectivity, CDK2-Nluc (Example 6); format: binding; conditions: HeLa cells then digitonin, 10 uL of 1 mM stock per well
T2 construct: NanoLuc luciferase (Nluc); expressed in transfected cells; host or cells: HeLa
Protocol: as §1, with “HeLa cells were transfected separately with CDK2-Nluc or Nluc-ABL1 DNA at a 1:100 DNA ratio and incubated overnight. […] The cells” for “The cells”, “plates were then incubated for ½ hour in a humidified, 37° C./5% CO2 incubator prior to addition of 10 uL/well of a 0.5 mg/ml solution of digitonin (Sigma) and 10% DMSO (Sigma). The plates were placed into” for “plates were placed into”, “3 minutes. Furimazine Live Cell Substrate (Promega) was added to a final concentration of 1× in 20 uL/well volume. 100 uL/well” for “3 minutes. 100 uL/well”, “respective sample. Data was then fitted to obtain apparent melting temperature where the protein was precipitating (Tagg values) using the Boltzmann Sigmoidal equation with Graphpad Prism software.” for “respective sample.”

Nluc-ABL1 = target: T3, Nluc-ABL1 (Homo sapiens, UniProt P00519); experiment: Direct-luciferase-detection thermal shift assay, compound selectivity, Nluc-ABL1 (Example 6); format: binding; conditions: Nluc-ABL1, HeLa cells then digitonin, 10 uL of 1 mM stock per well
T3 construct: NanoLuc luciferase (Nluc); expressed in transfected cells; host or cells: HeLa
T3 sequence (P00519 whole entry): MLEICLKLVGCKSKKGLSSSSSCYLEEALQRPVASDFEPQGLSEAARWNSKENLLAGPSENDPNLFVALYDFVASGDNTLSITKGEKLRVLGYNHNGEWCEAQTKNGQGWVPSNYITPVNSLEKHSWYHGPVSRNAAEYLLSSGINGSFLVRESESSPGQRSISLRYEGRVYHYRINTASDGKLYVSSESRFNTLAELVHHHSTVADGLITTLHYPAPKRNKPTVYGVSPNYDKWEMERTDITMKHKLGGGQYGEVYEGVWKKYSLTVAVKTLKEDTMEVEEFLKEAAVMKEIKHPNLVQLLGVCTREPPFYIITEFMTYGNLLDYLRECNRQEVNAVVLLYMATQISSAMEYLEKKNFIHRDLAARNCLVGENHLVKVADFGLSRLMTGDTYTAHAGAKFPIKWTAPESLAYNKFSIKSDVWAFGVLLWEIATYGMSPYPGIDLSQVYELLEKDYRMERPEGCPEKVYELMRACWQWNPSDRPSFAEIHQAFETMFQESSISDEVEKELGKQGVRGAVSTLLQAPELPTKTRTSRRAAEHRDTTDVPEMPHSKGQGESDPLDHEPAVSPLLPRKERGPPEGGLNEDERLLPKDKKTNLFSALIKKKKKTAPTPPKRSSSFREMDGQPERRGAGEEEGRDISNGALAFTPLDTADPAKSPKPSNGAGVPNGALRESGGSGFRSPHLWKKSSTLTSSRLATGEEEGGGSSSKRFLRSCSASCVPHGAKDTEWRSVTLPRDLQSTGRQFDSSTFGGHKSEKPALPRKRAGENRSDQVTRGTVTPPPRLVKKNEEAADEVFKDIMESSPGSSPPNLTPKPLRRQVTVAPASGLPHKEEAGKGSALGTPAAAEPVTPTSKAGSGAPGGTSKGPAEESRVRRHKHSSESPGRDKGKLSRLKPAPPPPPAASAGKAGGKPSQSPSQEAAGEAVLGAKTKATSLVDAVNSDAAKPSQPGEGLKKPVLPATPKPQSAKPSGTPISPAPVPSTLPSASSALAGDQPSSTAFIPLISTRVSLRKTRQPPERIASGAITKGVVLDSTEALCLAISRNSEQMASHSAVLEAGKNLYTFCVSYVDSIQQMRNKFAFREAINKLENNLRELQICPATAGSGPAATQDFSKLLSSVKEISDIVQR
Protocol: as §1, with “HeLa cells were transfected separately with CDK2-Nluc or Nluc-ABL1 DNA at a 1:100 DNA ratio and incubated overnight. […] The cells” for “The cells”, “plates were then incubated for ½ hour in a humidified, 37° C./5% CO2 incubator prior to addition of 10 uL/well of a 0.5 mg/ml solution of digitonin (Sigma) and 10% DMSO (Sigma). The plates were placed into” for “plates were placed into”, “3 minutes. Furimazine Live Cell Substrate (Promega) was added to a final concentration of 1× in 20 uL/well volume. 100 uL/well” for “3 minutes. 100 uL/well”, “respective sample. Data was then fitted to obtain apparent melting temperature where the protein was precipitating (Tagg values) using the Boltzmann Sigmoidal equation with Graphpad Prism software.” for “respective sample.”

[1] = Optical property of dyes in DMSO (Table 1); format: physicochemical; conditions: for Optical Property (in DMSO) Excitation: unit assumed

T1 sequence (Q13547 whole entry): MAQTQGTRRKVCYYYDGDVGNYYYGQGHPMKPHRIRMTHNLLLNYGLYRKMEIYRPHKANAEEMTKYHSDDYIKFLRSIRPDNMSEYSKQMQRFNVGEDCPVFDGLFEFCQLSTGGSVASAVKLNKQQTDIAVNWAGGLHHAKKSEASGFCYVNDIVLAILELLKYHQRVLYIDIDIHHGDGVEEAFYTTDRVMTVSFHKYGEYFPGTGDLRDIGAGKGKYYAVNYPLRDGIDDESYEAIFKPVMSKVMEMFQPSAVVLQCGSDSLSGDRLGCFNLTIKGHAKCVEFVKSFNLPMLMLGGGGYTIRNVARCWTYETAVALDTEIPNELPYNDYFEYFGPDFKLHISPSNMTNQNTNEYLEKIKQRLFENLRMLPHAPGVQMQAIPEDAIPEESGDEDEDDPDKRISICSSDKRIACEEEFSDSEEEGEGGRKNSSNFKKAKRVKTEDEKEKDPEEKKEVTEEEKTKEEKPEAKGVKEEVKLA

Optical Property (in DMSO) Emission [1] | Optical Property (in DMSO) Excitation [1] [nm] | SMILES | shift in melting temperature (apparent Tagg) compared to the controls (HDAC1-Nluc) | shift in apparent Tagg compared to DMSO controls (CDK2-Nluc) | shift in apparent Tagg compared to DMSO controls (Nluc-ABL1)
468 nm | 602 | CCCCCCN(CCCCCC)c1ccc(/C=C/c2cccc[n+]2CCCS(=O)(=O)[O-])cc1 [CS0020] | – | – | –
516 nm | 702 | CCCCCCN(CCCCCC)c1ccc(/C=C/C=C/c2cc[n+](CCCS(=O)(=O)[O-])cc2)cc1 [CS0024] | – | – | –
560 nm | 680 | CCCCCCN(CCCCCC)c1ccc(/C=C/c2cc[n+](CCCS(=O)(=O)[O-])c3ccccc23)cc1 [CS0028] | – | – | –
468 nm | 620 | CCCCCCN(CCCCCC)c1ccc(/C=C/c2cc[n+](CCCC(=O)NCCCS(=O)(=O)[O-])cc2)cc1 [CS0043] | – | – | –
550 nm | 604 | CCCCCCN(CCCCCC)c1ccc(/C=C/C2=[N+](C)c3ccccc3C2(C)C)cc1.[I-] [CS0067] | – | – | –
not fluorescent | – | CCCCCCN(CCCCCC)c1ccc(/C=C/c2ccc3c(ccc[n+]3CCCS(=O)(=O)[O-])c2)cc1 [CS0072] | – | – | –
480 nm | 620 | CCCCCCN(CCCCCC)c1ccc(/C=C/c2cc[n+](CCCC(=O)N(CCCS(=O)(=O)[O-])CCCS(=O)(=O)O)cc2)cc1 [CS0073, (E)-3-(4-(4-(4-(Dihexylamino)styryl)pyridin-1-ium-1-yl)-N-(3-sulfopropyl)butanamido)propane-1-sulfonate] | – | – | –
532 nm | 640 | CCCCCCN(CCCCCC)c1ccc(/C=C/c2ccc3ccccc3[n+]2C)cc1.[I-] [CS0085] | – | – | –
480 nm | 618 | CCCCCCN(CCCCCC)c1ccc(/C=C/c2cc[n+](C34CC5CC(CC(C5)C3)C4)cc2)cc1.[Br-] [CS0096] | – | – | –
480 nm | 624 | CCCCCCN(CCCCCC)c1ccc(/C=C/c2cc[n+](CCCC(=O)OCC)cc2)cc1.[Br-] [CS0101, (E)-4-(4-(Dihexylamino)styryl)-1-(4-ethoxy-4-oxobutyl)pyridin-1-ium bromide] | – | – | –
468 nm | 620 | CCCCCCN(CCCCCC)c1ccc(/C=C/c2ccncc2)cc1 [CS0117, (E)-N,N-Dihexyl-4-(2-(pyridin-4-yl)vinyl)aniline] | – | – | –
516 nm | 702 | CCCCCCN(CCCCCC)c1ccc(/C=C/C=C/c2cc[n+](CCC[N+](C)(C)C)cc2)cc1 [CS0155] | – | – | –

Second part, the compound before the results:

SMILES | Optical Property (in DMSO) Emission [1] | Optical Property (in DMSO) Excitation [1] [nm] | shift in melting temperature (apparent Tagg) compared to the controls (HDAC1-Nluc) | shift in apparent Tagg compared to DMSO controls (CDK2-Nluc) | shift in apparent Tagg compared to DMSO controls (Nluc-ABL1)
O=C(CCCCCCNC(=O)c1cnc(N(c2ccccc2)c2ccccc2)nc1)NO [ACY1215] | – | – | significant shift in melting temperature (apparent Tagg) | – | –
Cn1c(NC[C@@H](N)Cc2ccccc2)nc(-c2ccncc2)c(-c2ccc3ccccc3c2)c1=O [AMG548] | – | – | – | did not result in a significant shift in apparent Tagg | did not
CCCCCCN(CCCCCC)c1ccc(/C=C/c2cc[n+](CCCC(=O)O)cc2)cc1.[Br-] [CS0036, (E)-1-(3-Carboxypropyl)-4-(4-(dihexylamino)styryl)pyridin-1-ium chloride] | 480 nm | 624 | – | – | –
CCCCCCN(CCCCCC)c1ccc(/C=C/c2cc[n+](CCCS(=O)(=O)[O-])cc2)c2ccccc12 [CS0038] | 462 nm | 654 | – | – | –
CCCCCCN(CCCCCC)c1ccc(/C=C/c2cc[n+](CCCC(=O)NCCOCCOCCOCCC(=O)O)cc2)cc1.[Br-] [CS0045, (E)-1-(1-Carboxy-13-oxo-3,6,9-trioxa-12-azahexadecan-16-yl)-4-(4-(dihexylamino)styryl)pyridin-1-ium chloride] | 480 nm | 622 | – | – | –
CCCCCCN(CCCCCC)c1ccc(/C=C/c2cc[n+](CCCC(=O)NCCOCCOCCOCCC(=O)NCCCS(=O)(=O)[O-])cc2)cc1 [CS0048, (E)-21-(4-(4-(Dihexylamino)styryl)pyridin-1-ium-1-yl)-5,18-dioxo-8,11,14-trioxa-4,17-diazahenicos-ane-1-sulfonate] | 478 nm | 620 | – | – | –
CCCCCCN(CCCCCC)c1cccc2c(/C=C/c3cc[n+](CCCS(=O)(=O)[O-])cc3)cccc12 [CS0071] | not fluorescent | – | – | – | –
C[n+]1c(/C=C/c2ccc3ccccc3c2)ccc2ccccc21.[I-] [CS0087] | 400 nm | 550 | – | – | –
CCCCCCN(CCCCCC)c1ccc(/C=C/c2cc[n+](CCCC(=O)NCCOCCOCCOCCC(=O)OC(C)(C)C)cc2)cc1.[Br-] [CS0100, (E)-4-(4-(Dihexylamino)styryl)-1-(2,2-dimethyl-4,17-dioxo-3,7,10,13-tetraoxa-16-azaicosan-20-yl)pyridin-1-ium chloride] | 480 nm | 622 | – | – | –
CCCCCCN(CCCCCC)c1ccc(/C=C/c2cc[n+](CC)cc2)cc1.[OH-] [CS0112] | 480 nm | 620 | – | – | –
CCCCCCN(CCCCCC)c1ccc(/C=C/c2cc[n+](CCC(F)(F)C(F)(F)C(F)(F)C(F)(F)C(F)(F)C(F)(F)F)cc2)cc1.[I-] [CS0121, (E)-4-(4-(dihexylamino)styryl)-1-(3,3,4,4,5,5,6,6,7,7,8,8,8-tridecafluorooctyl)pyridin-1-iumiodide] | 480 nm | 620 | – | – | –
CCCCCCN(CCCCCC)c1ccc(/C=C/C=C/c2cc[n+](CCCC(=O)NCCOCCOCCOCCC(=O)OC(C)(C)C)cc2)cc1 [CS0147] | 516 nm | 702 | – | – | –
Nc1ccccc1NC(=O)c1ccc(CNc2nccc(-c3cccnc3)n2)cc1 [Mocetinostat] | – | – | significant shift in melting temperature (apparent Tagg) | – | –
Cc1cn(-c2cc(NC(=O)c3ccc(C)c(Nc4nccc(-c5cccnc5)n4)c3)cc(C(F)(F)F)c2)cn1 [Nilotinib] | – | – | – | did not result in a significant shift in apparent Tagg | –
C[S+]([O-])c1ccc(-c2nc(-c3ccncc3)c(-c3ccc(F)cc3)[nH]2)cc1 (stereo not shown) [SB203580] | – | – | – | did not result in a significant shift in apparent Tagg | did not
